Results on seven compounds are retold here after patent publication US7855300B2, “Bis(trimethylsilyl)phenyl compound or salt thereof, and use thereof” (Taiho Pharmaceutical Co., Ltd., priority 2007, dated 2010).

The subject of data set [1] is JHH-7 (human hepatocellular carcinoma cell lines). The data set can be described thus: Antitumor effect in JHH-7 orthotopic liver transplantation model. The format is in vivo, male nude mice (BALB/cA Jcl-nu). To be noted: 16 mg/kg orally once per day for 14 days; tumor weight on 15th day; T/C×100. As to the method: RARα high expression cells, i.e., human hepatocellular carcinoma cell lines JHH-7, were implanted in the outside left lobe of the liver of male nude mice (BALB/cA Jcl-nu; CLEA Japan, Inc.) under Nembutal anesthesia in an amount of 1×10^6 cells (0.02 ml) per mouse. On the 11th to 14th day after implantation, the mice were divided into groups, each consisting of seven mice. The compounds of the present invention and the reference compound TAC-101 were suspended in 0.5% HPMC and 1.6 mg/ml solution was orally administered to the mice at a liquid dose of 10 ml/kg, namely, at a dose of 16 mg/kg, once per day for 14 days. On the 15th day after the start of administration, the mice were exsanguinated to death under ether anesthesia. Tumors formed in the outside left lobe of the liver were extracted, and the tumor weight was measured to assess the antitumor effect. The antitumor effect was evaluated by calculating the tumor growth rate (%) using the following equation. The antitumor effect of each compound was analyzed by Student's test and statistical significance was determined. Tumor growth rate(%)=T/C×100 T: Average tumor weight in the groups administered with the test compounds C: Average tumor weight in the groups not administered with test compounds

In data set [2] the test system is Human prostatic carcinoma cell lines TSU-Pr1. The experiment in a line: Growth inhibitory and differentiation-inducing effect on prostate cancer cells. In kind it is cell-based. To be noted: 10 μM, IGF-I 10 ng/ml; for Cytostatic activity (crystal violet staining): 7th day after culturing, FIG. 5; for Change in cell shape (differentiation-inducing activity): after three days, FIG. 4. As to the method: Human prostatic carcinoma cell lines TSU-Pr1 prepared in RPMI1640 culture medium containing 2% fetal bovine serum were plated into a 24-well culture plate at a cell density of 3×10^3 cells per well. The next day, IGF-I (10 ng/ml) was added as a growth factor, and the cells were treated with Compounds 2 and 3 of the present invention and the reference compound TAC-101 each in an amount of 10 μM. Change in cell shape after three days was observed. Moreover, on the 7th day after culturing, the cells were fixed with 25% glutaraldehyde solution. Cytostatic activity was determined by the crystal violet staining method, and the statistical significance of the cytostatic activity was analyzed by Student's test. […] In the Control group that was not treated with medicine, a cobblestone-like shape and vigorous cell division were observed. Such cell shape is characteristic of epithelioid cancer cells.

A short description of data set [3]: Rat toxicity test, oral administration for 4 weeks. The format is in vivo, male SD rats. Also on record: key: +: recognized; −: not observed. The method, then:
The compounds of the present invention and the reference compound TAC-101 were orally administered to male SD rats (CLEA Japan, Inc.) for 4 weeks. The dosage of each compound was 6 mg/kg or 24 mg/kg per rat. Differences in toxic symptoms were compared and studied.

Data set [4] has as its system Human prostatic carcinoma cell lines TSU-Pr1. The experiment in a line: Cancer malignancy-reducing effect (tumorigenicity of pretreated TSU-Pr1 cells implanted in nude mice). The conditions noted are these: cells treated 72 hours, six subcutaneous sites, 26th day after implantation. In kind it is in vivo, male nude mice (BALB/cA Jcl-nu). The method, then: Human prostatic carcinoma cell lines TSU-Pr1 were treated with Compound 3 of the present invention and the reference compound TAC-101 for 72 hours. The cells were subcutaneously implanted into male nude mice (BALB/cA Jcl-nu; CLEA Japan, Inc.) at six sites in total per mouse. On the 26th day after implantation, the rate of subcutaneous tumor formation was observed and the effect of reducing cancer malignancy was evaluated. Statistical significance was analyzed by Wilcoxon test.

Data set [5] has as its system non-small cell lung cancer. The conditions noted are these: phase I study, Non-Patent Document 5; cited from earlier work.

The term melting point denotes the temperature of the solid-liquid transition.

For the compound `C[Si](C)(C)c1cc(C(=O)Nc2ccc(/C=C/C(=O)O)cn2)cc([Si](C)(C)C)c1`, the melting point was 302 °C (dec.).
On to `C[Si](C)(C)c1cc(C(=O)Nc2ccc(/C=C/C(=O)O)c(F)c2)cc([Si](C)(C)C)c1` [Compound 2, 4-[[3,5-Bis(trimethylsilyl)benzoyl]amino]-2-fluorocinnamic acid], for which, in data set [1], the “Tumor Growth Rate (%)” value is recorded as 21%. Further, in data set [2], the “Cytostatic activity (crystal violet staining)” value was “dramatic cytostatic effect was recognized” and the “Change in cell shape (differentiation-inducing activity)” value is on record as “dramatic change was recognized in the shape of neuroid cells”. In addition, in data set [3] (6 mg/kg), the “Alopecia Symptom” value is “−” and the “Endocortical Proliferation” value is “−”. Also, in data set [3] (24 mg/kg), the “Alopecia Symptom” value is “−” and the “Endocortical Proliferation” value is listed as “−”.
With `C[Si](C)(C)c1cc(C(=O)Nc2ccc(/C=C/C(=O)O)cc2)cc([Si](C)(C)C)c1` [Compound 3, 4-[[3,5-Bis(trimethylsilyl)benzoyl]amino]cinnamic acid], the “Tumor Growth Rate (%)” value in data set [1] is reported as 25%. In addition, in data set [2], the “Cytostatic activity (crystal violet staining)” value is on record as “dramatic cytostatic effect was recognized” and the “Change in cell shape (differentiation-inducing activity)” value is on record as “dramatic change was recognized in the shape of neuroid cells”. In data set [4], the “Graft Survival (%)” value turned out to be 17% and the “Tumor Formation” value is listed as 1/6. Moreover, in data set [3] (6 mg/kg), the “Alopecia Symptom” value was “−” and the “Endocortical Proliferation” value is “−”. For the same compound, in data set [3] (24 mg/kg), the “Alopecia Symptom” value is given as “−” and the “Endocortical Proliferation” value is given as “−”.
With `C/C(=C\C(=O)O)c1ccc(NC(=O)c2cc([Si](C)(C)C)cc([Si](C)(C)C)c2)cc1` [Compound 6, (E)-3-[4-[[3,5-Bis(trimethylsilyl)benzoyl]amino]phenyl]-2-butenoic acid], the “Tumor Growth Rate (%)” value in data set [1] worked out at 31%.
As to `C/C(=C\C(=O)O)c1ccc(NC(=O)c2cc([Si](C)(C)C)cc([Si](C)(C)C)c2)cc1F` [Compound 11, (E)-3-[4-[[3,5-Bis(trimethylsilyl)benzoyl]amino]-2-fluorophenyl]-2-butenoic acid], the “Tumor Growth Rate (%)” value in data set [1] stood at 36%.
On to `C/C(=C\c1ccc(NC(=O)c2cc([Si](C)(C)C)cc([Si](C)(C)C)c2)cc1F)C(=O)O` [Compound 14, (E)-3-[4-[[3,5-Bis(trimethylsilyl)benzoyl]amino]-2-fluorophenyl]-2-methylacrylic acid], for which, in data set [3] (6 mg/kg), the “Alopecia Symptom” value was “−” and the “Endocortical Proliferation” value is “−”. In data set [3] (24 mg/kg), the “Alopecia Symptom” value is on record as “−” and the “Endocortical Proliferation” value is recorded as “−”.
Consider `C[Si](C)(C)c1cc(C(=O)Nc2ccc(C(=O)O)cc2)cc([Si](C)(C)C)c1` [TAC-101, 4-[3,5-bis(trimethylsilyl)benzamido]benzoic acid, reference compound], for which, in data set [1], the “Tumor Growth Rate (%)” value stood at 52%. In addition, in data set [2], the “Change in cell shape (differentiation-inducing activity)” value is on record as “no significant change was recognized in the shape”. Besides, in data set [4], the “Graft Survival (%)” value worked out at 67% and the “Tumor Formation” value is given as 4/6. For the same compound, in data set [3] (6 mg/kg), the “Alopecia Symptom” value is “+” and the “Endocortical Proliferation” value is recorded as “−”. In data set [3] (24 mg/kg), the “Alopecia Symptom” value was “+” and the “Endocortical Proliferation” value is “+”. In data set [5], the Clinical response result is reported as “complete remission cases were reported” and the Side effects entry was “symptoms (skin disorders) similar to hypervitaminosis A were observed”.
